The supplement of paper PMC10627819

Legend:
[1] = system: S. aureus Newman; experiment: Bliss interaction score (quartile over a dose matrix) (fitness difference); higher = more antagonism (negative = synergy)
How it was run: (§1)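 Quartiles summarise the Bliss score over technical, biological and donor/recipient replicates, where the score is observed minus expected fitness under a product model. Expected fitness uses single-drug values inferred from combination data. Fitness is OD595 at entry into stationary phase over the plate's robust no-drug mean, capped at 1.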

[2] = system: S. pneumoniae D39V; experiment: as above
How it was run: as §1

[3] = system: S. aureus DSM 20231; experiment: as above
How it was run: as §1

[4] = system: B. subtilis 168; experiment: as above
How it was run: as §1

[5] = system: S. pneumoniae D39V; experiment: fitness (endpoint OD595 vs no drug) (fraction); higher = more growth
How it was run: (§2)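 Growth medium was TSB, LB Lennox or CY, and plates were kept at 37 °C. Inoculation was at OD595 0.01 in 384-well plates, at 30 µl per well or 55 µl for S. pneumoniae. OD595 was monitored every 30 min for 14 h and background-subtracted using the first reading. Fitness is the optical density on entering stationary phase divided by the robust mean of no-drug controls, with values capped at 1.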

[6] = system: B. subtilis 168; experiment: as above
How it was run: as §2
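Wherever Bliss interaction score (quartile over a dose matrix) is given: first quartile when negative (synergy) and third quartile when positive (antagonism).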

CCC[C@@H]1C[C@@H](C(=O)N[C@@H]([C@H]2O[C@H](SC)[C@H](O)[C@@H](O)[C@H]2O)[C@H](C)Cl)N(C)C1 [Clindamycin] + C[C@H]1COc2c(N3CCN(C)CC3)c(F)cc3c(=O)c(C(=O)O)cn1c23 [Levofloxacin]
Conditions | Bliss interaction score
[1] | 0.0891
[2] | 0.0885
[3] | 0.0785
[4] | 0.0326

Conditions | fitness
[5], first compound 0.0125 µg/mL, partner 0.2 µg/mL | 0.759
[5], first compound 0.0125 µg/mL, partner 0.4 µg/mL | 0.736
[5], first compound 0.0125 µg/mL, partner 0.8 µg/mL | 0.605
[5], first compound 0.015 µg/mL, partner 0.1725 µg/mL | 0.909
[5], first compound 0.015 µg/mL, partner 0.345 µg/mL | 0.865
[5], first compound 0.015 µg/mL, partner 0.69 µg/mL | 0.595
[5], first compound 0.025 µg/mL, partner 0.2 µg/mL | 0.478
[5], first compound 0.025 µg/mL, partner 0.4 µg/mL | 0.47
[5], first compound 0.025 µg/mL, partner 0.8 µg/mL | 0.39
[5], first compound 0.03 µg/mL, partner 0.1725 µg/mL | 0.822
[5], first compound 0.03 µg/mL, partner 0.345 µg/mL | 0.759
[5], first compound 0.03 µg/mL, partner 0.69 µg/mL | 0.546
[5], first compound 0.05 µg/mL, partner 0.2 µg/mL | 0.235
[5], first compound 0.05 µg/mL, partner 0.4 µg/mL | 0.189
[5], first compound 0.05 µg/mL, partner 0.8 µg/mL | 0.15
[5], first compound 0.06 µg/mL, partner 0.1725 µg/mL | 0.631
[5], first compound 0.06 µg/mL, partner 0.345 µg/mL | 0.601
[5], first compound 0.06 µg/mL, partner 0.69 µg/mL | 0.399
[6], first compound 0.0625 µg/mL, partner 0.0312 µg/mL | 0.041
[6], first compound 0.0625 µg/mL, partner 0.0625 µg/mL | 0.038
[6], first compound 0.0625 µg/mL, partner 0.125 µg/mL | 0.0416
[6], first compound 0.125 µg/mL, partner 0.0312 µg/mL | 0.0414
[6], first compound 0.125 µg/mL, partner 0.0625 µg/mL | 0.0486
[6], first compound 0.125 µg/mL, partner 0.125 µg/mL | 0.0468
[6], first compound 0.25 µg/mL, partner 0.0312 µg/mL | 0.0473
[6], first compound 0.25 µg/mL, partner 0.0625 µg/mL | 0.0532
[6], first compound 0.25 µg/mL, partner 0.125 µg/mL | 0.0518

fitness, [6], one replicate
Conditions | first compound 0.0039 µg/mL | first compound 0.0078 µg/mL | first compound 0.0156 µg/mL | first compound 0.0625 µg/mL | first compound 0.125 µg/mL | first compound 0.25 µg/mL
partner 0.001 µg/mL | – | – | – | 0.715 | 0.554 | 0.391
partner 0.002 µg/mL | 0.97 | 0.86 | 0.833 | 0.558 | 0.442 | 0.338
partner 0.0039 µg/mL | 0.968 | 0.872 | 0.816 | 0.648 | 0.511 | 0.389
partner 0.0078 µg/mL | 0.967 | 0.854 | 0.815 | – | – | –

CCC[C@@H]1C[C@@H](C(=O)N[C@@H]([C@H]2O[C@H](SC)[C@H](O)[C@@H](O)[C@H]2O)[C@H](C)Cl)N(C)C1 [Clindamycin] + C[C@H]1c2cccc(O)c2C(=O)C2=C(O)[C@]3(O)C(=O)C(C(N)=O)=C(O)[C@@H](N(C)C)[C@@H]3[C@@H](O)[C@@H]21 [Doxycycline]
Conditions | Bliss interaction score
[1] | -0.135
[2] | -0.151
[3] | -0.0562
[4] | -0.184

Conditions | fitness
[5], first compound 0.0125 µg/mL, partner 0.0155 µg/mL | 0.451
[5], first compound 0.0125 µg/mL, partner 0.031 µg/mL | 0.35
[5], first compound 0.0125 µg/mL, partner 0.062 µg/mL | 0.114
[5], first compound 0.015 µg/mL, partner 0.0155 µg/mL | 0.876
[5], first compound 0.025 µg/mL, partner 0.0155 µg/mL | 0.28
[5], first compound 0.025 µg/mL, partner 0.031 µg/mL | 0.245
[5], first compound 0.025 µg/mL, partner 0.062 µg/mL | 0.078
[5], first compound 0.03 µg/mL, partner 0.0155 µg/mL | 0.745
[5], first compound 0.05 µg/mL, partner 0.0155 µg/mL | 0.0637
[5], first compound 0.05 µg/mL, partner 0.031 µg/mL | 0.0376
[5], first compound 0.05 µg/mL, partner 0.062 µg/mL | 0.073
[5], first compound 0.06 µg/mL, partner 0.0155 µg/mL | 0.577
[6], first compound 0.0625 µg/mL, partner 0.04 µg/mL | 0.406
[6], first compound 0.0625 µg/mL, partner 0.08 µg/mL | 0.0499
[6], first compound 0.125 µg/mL, partner 0.02 µg/mL | 0.389
[6], first compound 0.125 µg/mL, partner 0.04 µg/mL | 0.164
[6], first compound 0.125 µg/mL, partner 0.08 µg/mL | 0.0428
[6], first compound 0.25 µg/mL, partner 0.02 µg/mL | 0.293
[6], first compound 0.25 µg/mL, partner 0.04 µg/mL | 0.11
[6], first compound 0.25 µg/mL, partner 0.08 µg/mL | 0.0404

fitness, one replicate
Conditions | partner 0.003875 µg/mL | partner 0.00775 µg/mL | partner 0.02 µg/mL | partner 0.031 µg/mL | partner 0.04 µg/mL | partner 0.062 µg/mL | partner 0.08 µg/mL
[5], first compound 0.015 µg/mL | 0.934 | 0.931 | – | 0.803 | – | 0.567 | –
[5], first compound 0.03 µg/mL | 0.778 | 0.777 | – | 0.588 | – | 0.359 | –
[5], first compound 0.06 µg/mL | 0.714 | 0.743 | – | 0.405 | – | 0.163 | –
[6], first compound 0.0039 µg/mL | – | – | 0.97 | – | 0.891 | – | 0.677
[6], first compound 0.0078 µg/mL | – | – | 0.831 | – | 0.781 | – | 0.515
[6], first compound 0.0156 µg/mL | – | – | 0.824 | – | 0.743 | – | 0.235

O=C(O[C@@H]1Cc2c(O)cc(O)cc2O[C@@H]1c1cc(O)c(O)c(O)c1)c1cc(O)c(O)c(O)c1 [EGCG] + CCC(C)C1C(=O)NC(=C)C(=O)NC(C(=O)NC(CSCC(C(=O)N1)NC(=O)/C(=C/C)/NC(=O)C(C(C)CC)N)C(=O)NC2C(SCC(NC(=O)CNC(=O)C3CCCN3C2=O)C(=O)NC(CCCCN)C(=O)NC4C(SCC(NC(=O)CNC(=O)C(NC(=O)C(NC(=O)C(NC(=O)CNC4=O)C)CC(C)C)CCSC)C(=O)NC(CC(=O)N)C(=O)NC(CCSC)C(=O)NC(CCCCN)C(=O)NC5C(SCC6C(=O)NC(C(=O)NC(CSC(C(C(=O)N6)NC(=O)C(NC5=O)C)C)C(=O)NC(CO)C(=O)NC(C(C)CC)C(=O)NC(CC7=CN=CN7)C(=O)NC(C(C)C)C(=O)NC(=C)C(=O)NC(CCCCN)C(=O)O)CC8=CN=CN8)C)C)C)CC(C)C [Nisin]
main component drawn
Conditions | Bliss interaction score
[1] | 0.134
[2] | 0.11
[3] | 0.165
[4] | -0.0674

fitness, main component drawn
Conditions | first compound 6.25 µg/mL | first compound 12.5 µg/mL | first compound 25 µg/mL | first compound 50 µg/mL
[5], partner 0.4275 µg/mL | – | 0.965 | 0.967 | 0.982
[5], partner 0.855 µg/mL | – | 0.989 | ≥ 1 | ≥ 1
[5], partner 1.6 µg/mL | – | 0.0156 | 0.0307 | –
[5], partner 1.71 µg/mL | – | 0.105 | 0.131 | 0.244
[5], partner 3.2 µg/mL | – | 0.0612 | – | –
[5], partner 6.4 µg/mL | – | 0.08 | 0.046 | 0.0006
[6], partner 0.5 µg/mL | 0.853 | 0.761 | – | –
[6], partner 1 µg/mL | 0.813 | 0.619 | – | –
[6], partner 2 µg/mL | 0.432 | 0.308 | 0.21 | –

fitness, [6], one replicate, main component drawn
Conditions | partner 1.25 µg/mL | partner 1.6 µg/mL | partner 2.5 µg/mL | partner 3.2 µg/mL | partner 4 µg/mL | partner 5 µg/mL | partner 6.4 µg/mL | partner 8 µg/mL | partner 16 µg/mL
first compound 6.25 µg/mL | ≥ 1 | 0.616 | 0.682 | 0.0933 | 0.0068 | 0.154 | 0.0135 | 0.069 | 0.0181
first compound 12.5 µg/mL | 0.625 | 0.199 | 0.282 | 0.0301 | 0.0461 | 0.0396 | 0.0233 | 0.0351 | 0.0262
first compound 25 µg/mL | 0.247 | 0.0657 | 0.0742 | 0.0436 | 0.0163 | 0.0343 | 0.0151 | 0.044 | 0.0094
